We go through 24 compounds from ChEMBL document CHEMBL1155240, “Discovery of a new class of protein farnesyltransferase inhibitors in the arylthiophene series” (J Med Chem, 2009).

Calls of active or inactive are those of the source. The rule behind the calls is not given here.

Tested on in the first test: not listed separately
As to the kind of experiment: (§1) Inhibition of yeast recombinant FTase.
Conditions: not given
Further details: species or system Saccharomyces cerevisiae.
By IC50 is commonly meant the concentration needed to halve the response being measured. With `CON(C)C(=O)c1sc(SC(C)C)c(C#N)c1-c1ccc(Cl)cc1`, the half-inhibitory concentration (IC50) result was “Not Active”.

In the case of `CC(C)Sc1scc(-c2ccc(Cl)cc2)c1C#N`, the IC50 result is on record as “Not Active”.

On to `CC(C)Sc1sc(CO)c(-c2ccc(Cl)cc2)c1C#N`, for which the IC50 result was “Not Active”.

The test is the same for the next values; noted with them: read-out: IC50.
For the compound `CC(C)Sc1oc(C(=O)O)c(-c2ccc(Cl)cc2)c1C#N`, the IC50 stood at 2000 nM.

For the compound `CSc1sc(C(=O)NC2CC2)c(-c2ccc(Cl)cc2)c1C#N`, the IC50 is 22000 nM.

On to `CSCC[C@@H](NC(=O)c1sc(SC(C)C)c(C#N)c1-c1ccc(Cl)cc1)C(=O)O`, for which the concentration for half-maximal inhibition (IC50) turned out to be 7.5 nM.

Take `N#Cc1c(SC2CCCCC2)sc(C(=O)O)c1-c1ccc(Cl)cc1`: the IC50 was determined as 1450 nM.

For the compound `CC(C)Sc1nc(-c2ccc(Cl)cc2)c(C(=O)O)s1`, the concentration for half-maximal inhibition (IC50) came out at 51000 nM.

Consider `CC(=O)c1sc(SC(C)C)c(C#N)c1-c1ccc(Cl)cc1`, for which the concentration for half-maximal inhibition (IC50) is 790 nM.

As to `CC(C)Sc1sc(C(N)=O)c(-c2ccc(Cl)cc2)c1C#N`, the IC50 was 1100 nM.

As for `CC(C)Sc1sc(C(=O)O)c(-c2ccc(Cl)cc2)c1C#N`, the IC50 came to 110 nM.

Consider `CC(=O)OCc1sc(SC(C)C)c(C#N)c1-c1ccc(Cl)cc1`, for which the IC50 was determined as 45000 nM.

With `CCSc1sc(C(=O)O)c(-c2ccc(Cl)cc2)c1C#N`, the 50% inhibitory concentration (IC50) turned out to be 325 nM.

With `CSc1sc(C(=O)O)c(-c2ccc(Cl)cc2)c1C#N`, the IC50 was found to be 610 nM.

Take `CCC(C)Sc1sc(C(=O)O)c(-c2ccc(Cl)cc2)c1C#N` (stereo unspecified): the IC50 was found to be 345 nM.

`CC(C)CSc1sc(C(=O)O)c(-c2ccc(Cl)cc2)c1C#N`: the IC50 worked out at 890 nM.

Take `CCCCSc1sc(C(=O)O)c(-c2ccc(Cl)cc2)c1C#N`: the 50% inhibitory concentration (IC50) was 1240 nM.

For the compound `CCOC(=O)c1sc(SC(C)C)c(C#N)c1-c1ccc(Cl)cc1`, the concentration for half-maximal inhibition (IC50) was found to be 3800 nM.

Take `COC(=O)[C@@H](CCSC)NC(=O)c1sc(SC(C)C)c(C#N)c1-c1ccc(Cl)cc1`: the IC50 was determined as 5700 nM.

Turning to `N#Cc1c(N2CCOCC2)sc(C(=O)O)c1-c1ccc(Cl)cc1`, the IC50 is 28000 nM.

Regarding `CC(C)Sc1c(C#N)c(-c2ccc(Cl)cc2)c(C(=O)O)n1C`, the IC50 was determined as 47000 nM.

In a further test the test system is Saccharomyces cerevisiae. The test is described as §1.
Conditions: not given
Regarding `CCOC(=O)c1sc(SC(C)C)nc1-c1ccc(Cl)cc1`, the outcome was inactive.

Turning to `CCOC(=O)c1oc(SC(C)C)c(C#N)c1-c1ccc(Cl)cc1`, the outcome was inactive.

Regarding `CCOC(=O)c1c(-c2ccc(Cl)cc2)c(C#N)c(SC(C)C)n1C`, the outcome was inactive.

Target in the next test: not listed separately
Nature of the test: Inhibition of yeast recombinant FTase by Lineweaver-Burke plot. Further details: species or system Saccharomyces cerevisiae.
Conditions: not given
As a reminder, the Ki is the dissociation constant of the complex between target and ligand, obtained from inhibition or displacement. For the compound `CC(C)Sc1sc(C(=O)O)c(-c2ccc(Cl)cc2)c1C#N`, the inhibitory constant (Ki) is 105 nM.

Target in another test: not listed separately
Nature of the test: Inhibition of yeast recombinant FTase by non-competitive Lineweaver-Burke plot using farnesyl pyrophosphate substrate. Further details: species or system Saccharomyces cerevisiae.
Conditions: not given
`CC(C)Sc1sc(C(=O)O)c(-c2ccc(Cl)cc2)c1C#N`: the Ki turned out to be 110 nM.
